From the supplement of paper PMC10307832

What was measured:
Assay in all cases: relative viability (nuclei count vs DMSO), 5 days (fraction); higher = more cells survive
[1] = compound: CC(C)(C)c1cc(NC(=O)Nc2ccc(-c3cn4c(n3)sc3cc(OCCN5CCOCC5)ccc34)cc2)no1 [Quizartinib] + CC(=O)Nc1cccc(-n2c(=O)n(C3CC3)c(=O)c3c(Nc4ccc(I)cc4F)n(C)c(=O)c(C)c32)c1 [Trametinib] (partner 0.02 µM)
Procedure, shortened: (§1)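 Lung cancer cell lines in 1536-well plates got either a single drug or a fixed anchor-drug dose together with five library-drug doses (not always all listed) in √10 steps, by pin tool, on the day after seeding. Nuclei were counted after 5 days, and relative viability is the treated-to-vehicle ratio of nuclei counts. Values are medians of duplicate plates.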

[2] = compound: CC(C)(C)c1cc(NC(=O)Nc2ccc(-c3cn4c(n3)sc3cc(OCCN5CCOCC5)ccc34)cc2)no1 [Quizartinib] + CC(=O)c1c(C)c2cnc(Nc3ccc(N4CCNCC4)cn3)nc2n(C2CCCC2)c1=O [Palbociclib] (partner 0.5 µM)
Procedure, shortened: as §1

[3] = compound: CC(C)(C)c1cc(NC(=O)Nc2ccc(-c3cn4c(n3)sc3cc(OCCN5CCOCC5)ccc34)cc2)no1 [Quizartinib] + NC(=O)Nc1cc(-c2cccc(F)c2)sc1C(=O)N[C@H]1CCCNC1 [AZD7762] (partner 0.2 µM)
Procedure, shortened: as §1

[4] = compound: COCC[n+]1c2c(n(Cc3cnccn3)c1C)C(=O)c1ccccc1C2=O [YM155] + CC(=O)Nc1cccc(-n2c(=O)n(C3CC3)c(=O)c3c(Nc4ccc(I)cc4F)n(C)c(=O)c(C)c32)c1 [Trametinib] (partner 0.02 µM)
Procedure, shortened: as §1

[5] = compound: COCC[n+]1c2c(n(Cc3cnccn3)c1C)C(=O)c1ccccc1C2=O [YM155] + NC(=O)Nc1cc(-c2cccc(F)c2)sc1C(=O)N[C@H]1CCCNC1 [AZD7762] (partner 0.2 µM)
Procedure, shortened: as §1

[6] = compound: COCC[n+]1c2c(n(Cc3cnccn3)c1C)C(=O)c1ccccc1C2=O [YM155] + Nc1nc2[nH]cc(CCc3ccc(C(=O)N[C@@H](CCC(=O)O)C(=O)O)cc3)c2c(=O)[nH]1 [Pemetrexed] (partner 0.2 µM)
Procedure, shortened: as §1

NCI-H1648
relative viability ([1]; first compound 0.003162 µM): 0.401 | relative viability ([1]; first compound 0.03162 µM): 0.581 | relative viability ([1]; first compound 0.1 µM): 0.486 | relative viability ([2]; first compound 0.003162 µM): 0.118 | relative viability ([2]; first compound 0.03162 µM): 0.277 | relative viability ([2]; first compound 0.1 µM): 0.239 | relative viability ([3]; first compound 0.003162 µM): 0.612 | relative viability ([3]; first compound 0.03162 µM): 0.629 | relative viability ([3]; first compound 0.1 µM): 0.821 | relative viability ([4]; first compound 0.006325 µM): 0.902 | relative viability ([4]; first compound 0.02 µM): 0.444 | relative viability ([4]; first compound 0.06325 µM): 0.651 | relative viability ([5]; first compound 0.006325 µM): 0.689 | relative viability ([5]; first compound 0.02 µM): 0.557 | relative viability ([5]; first compound 0.06325 µM): 0.634 | relative viability ([6]; first compound 0.006325 µM): 0.97 | relative viability ([6]; first compound 0.02 µM): 0.702 | relative viability ([6]; first compound 0.06325 µM): 0.804
